Some test systems named below: ACHN renal; HS 578T breast; HT29 colon; IGROV1 ovarian; MOLT-4 leukemia; NCI-H460 lung; OVCAR-3 ovarian; TK-10 renal.
What all share (experiment): NCI anticancer screen, dose series, 48 h

Drawing on PubChem BioAssay (NCI), this text covers GI50 and TGI for nine molecules.

“And” between values parts separate entries of the source, which are not always exact repeats. Equal entries are not always repeated.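 The compound was tested at five concentrations on cells cultured in 96-well plates, with a 48-hour exposure period. The concentration for 50% growth inhibition is given as GI50. TGI: total growth inhibition.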

For the molecule `O=C(CN(/C=C/C(=O)C(F)(F)F)c1ccc(Cl)cc1)c1ccccc1`, the GI50 was 13.7 µM with ACHN renal; 24.3 µM in the assay with HS 578T breast; 25.8 µM in the assay with HT29 colon; 0.303 µM in the assay on IGROV1 ovarian; 39.7 µM in the assay with MOLT-4 leukemia; 52.9 µM in the assay with NCI-H460 lung. The GI50 with OVCAR-3 ovarian was 9.15 µM; in the assay on TK-10 renal, 7.88 µM. The TGI in the assay on ACHN renal was 28.9 µM; in the assay with HS 578T breast it was 68.1 µM; in the assay on HT29 colon it was above 100 µM; in the assay on IGROV1 ovarian it was 24.3 µM; in the assay with MOLT-4 leukemia, above 100 µM; with NCI-H460 lung, above 100 µM. Also, the TGI in the assay with OVCAR-3 ovarian came out at 46.3 µM; with TK-10 renal, 37.2 µM.

With `COC(=O)[C@]12CC[C@@H](C)[C@H](C)[C@@H]1C1=CC[C@@H]3[C@@]4(C)C(C=O)=C[C@@](C)(COC(C)=O)C4=CC[C@@]3(C)[C@]1(C)CC2`, the GI50 is 3.12 µM in the assay on ACHN renal; 5.07 µM in the assay with HS 578T breast; 3.17 µM with HT29 colon; 5.51 µM with IGROV1 ovarian; 1.82 µM in the assay on MOLT-4 leukemia; 3.98 µM with NCI-H460 lung. For the same molecule, the GI50 was 3.54 µM in the assay on OVCAR-3 ovarian and 9.31 µM in the assay on TK-10 renal. The TGI with ACHN renal turned out to be 12.4 µM; in the assay with HS 578T breast, 30.3 µM; in the assay on HT29 colon, 11 µM; in the assay with IGROV1 ovarian, 22.7 µM; with MOLT-4 leukemia it was 6.12 µM; with NCI-H460 lung, 15.2 µM. Further, the TGI amounted to 12.2 µM in the assay on OVCAR-3 ovarian and 21.6 µM in the assay with TK-10 renal.

For `Cc1ccc(S(=O)(=O)N2CCSCCN(S(=O)(=O)c3ccc(C)cc3)CCN(S(=O)(=O)c3ccc(C)cc3)CC2)cc1`, the TGI with HS 578T breast, in the assay with HT29 colon, with IGROV1 ovarian, in the assay on MOLT-4 leukemia, with NCI-H460 lung and in the assay with OVCAR-3 ovarian was above 100 µM throughout.

For `Cc1cc(O)ccc1C1=NN(c2ccc(S(C)(=O)=O)cc2)C(=O)CC1`, the GI50 with ACHN renal is 37.8 µM; in the assay on HS 578T breast it was 4.15 µM; with HT29 colon it was 3.7 µM; in the assay with IGROV1 ovarian, 7.13 µM; with MOLT-4 leukemia, 14.3 µM; in the assay on NCI-H460 lung, 3.87 µM. In addition, the GI50 in the assay on OVCAR-3 ovarian was 3.41 µM; in the assay on TK-10 renal, 80.5 µM. In addition, the TGI was above 100 µM with ACHN renal; above 100 µM in the assay on HS 578T breast; 32.3 µM in the assay on HT29 colon; above 100 µM in the assay on IGROV1 ovarian; above 100 µM in the assay on MOLT-4 leukemia; above 100 µM in the assay on NCI-H460 lung. In addition, the TGI in the assay with OVCAR-3 ovarian is 9.44 µM; with TK-10 renal, above 100 µM.

Regarding `COc1ccc(C(=O)COC(=O)[C@H](C[Se][Se]C[C@H](NC(=O)c2ccc(Br)cc2F)C(=O)OCC(=O)c2ccc(OC)cc2)NC(=O)c2ccc(Br)cc2F)cc1`, the GI50 is 0.884 µM in the assay with ACHN renal; 0.362 µM in the assay on HS 578T breast; 0.879 µM in the assay on HT29 colon; 0.82 µM with IGROV1 ovarian; 2.63 µM in the assay on MOLT-4 leukemia; 0.353 µM in the assay with NCI-H460 lung. Also, the values for the GI50 in the assay with OVCAR-3 ovarian and in the assay with TK-10 renal were 0.88 µM and 1.23 µM, respectively. Besides, the TGI came out at 2.49 µM with ACHN renal; 0.966 µM with HS 578T breast; 7.48 µM with HT29 colon; 2.62 µM in the assay with IGROV1 ovarian; 17.8 µM with MOLT-4 leukemia; 1.31 µM in the assay with NCI-H460 lung. Moreover, the values for the TGI in the assay with OVCAR-3 ovarian and with TK-10 renal were 2.31 µM and 3.4 µM, respectively.

Turning to `O=[N+]([O-])c1ccccc1N/N=C\c1c[nH]c2ccccc12`, the GI50 in the assay on ACHN renal was 13.9 µM; with HS 578T breast, 3.9 µM; with HT29 colon it was 16.8 µM; in the assay on IGROV1 ovarian, 0.0379 µM; in the assay with MOLT-4 leukemia, 4.42 µM; with NCI-H460 lung, 10.3 µM. Moreover, the GI50 is 8.18 µM in the assay with OVCAR-3 ovarian and 15 µM in the assay on TK-10 renal. For the same molecule, the TGI with ACHN renal was above 67.3 µM; in the assay with HS 578T breast, 25.8 µM; in the assay on HT29 colon, above 61.7 µM; with IGROV1 ovarian, 3.92 µM; in the assay with MOLT-4 leukemia it was above 100 µM; in the assay on NCI-H460 lung, above 100 µM. The TGI in the assay on OVCAR-3 ovarian was above 64.9 µM; in the assay with TK-10 renal it was above 72.6 µM.

On to `CC1(C)CCC2=C(O1)c1ccccc1C(=O)C2=O`, for which the GI50 is 1.62 µM and 1.02 µM in the assay on ACHN renal; 3.43 µM in the assay on HT29 colon; 1.8 µM and 1.78 µM in the assay with IGROV1 ovarian; 2.67 µM in the assay with MOLT-4 leukemia; 1.88 µM and 0.323 µM with NCI-H460 lung; 1.31 µM in the assay on OVCAR-3 ovarian. In addition, in the assay with TK-10 renal, the GI50 is 1.83 µM. Further, the TGI with ACHN renal is 2.97 µM and 2.18 µM; in the assay on HS 578T breast, 6.32 µM and 0.643 µM; in the assay with HT29 colon it was above 100 µM; with IGROV1 ovarian it was 3.55 µM and 3.39 µM; with MOLT-4 leukemia, 7.92 µM; with NCI-H460 lung it was 3.69 µM and 1.15 µM. Also, the TGI with OVCAR-3 ovarian is 2.9 µM and 0.698 µM; with TK-10 renal, 3.34 µM and 4.56 µM.

For the molecule `COc1cc2nc(SCC(=O)Nc3cc(OC)c(OC)c(OC)c3)n(Cc3ccccc3)c(=O)c2cc1OC`, the GI50 was 4.63 µM with ACHN renal; 2.46 µM with HS 578T breast; 16.6 µM with HT29 colon; 7.34 µM in the assay with IGROV1 ovarian; above 100 µM with MOLT-4 leukemia; 6.72 µM in the assay with NCI-H460 lung. Besides, the GI50 in the assay with OVCAR-3 ovarian was 7.68 µM; in the assay on TK-10 renal it was 4.06 µM. Further, the TGI with ACHN renal is above 100 µM; in the assay with HS 578T breast it was 9.45 µM; in the assay with HT29 colon it was 38.7 µM; in the assay on IGROV1 ovarian it was above 100 µM; in the assay with MOLT-4 leukemia, above 100 µM; with NCI-H460 lung it was above 100 µM. The TGI in the assay with OVCAR-3 ovarian turned out to be 50.3 µM; in the assay on TK-10 renal, 21.5 µM.

Regarding `CS(=O)(=O)Nc1ccc(-c2cc(-c3ccccc3)cc(C(N)=O)c2N)cc1`, the GI50 is above 25 µM in the assay on ACHN renal; above 22.4 µM with HS 578T breast; above 25 µM in the assay with HT29 colon; above 25 µM in the assay with IGROV1 ovarian; 19.5 µM in the assay on MOLT-4 leukemia; above 25 µM with NCI-H460 lung. Also, the GI50 was above 23.8 µM in the assay with OVCAR-3 ovarian and above 25 µM in the assay on TK-10 renal. The TGI in the assay with ACHN renal, in the assay on HS 578T breast, in the assay on HT29 colon, with IGROV1 ovarian, in the assay with MOLT-4 leukemia and with NCI-H460 lung was above 25 µM in each case. For the same molecule, the TGI in the assay with OVCAR-3 ovarian and in the assay on TK-10 renal was above 25 µM each time.
